Experiments:
Lipid bilayer [1] = experiment: Binding affinity to synthetic palmitoyl-oleoyl-phosphatidylcholine liposome at 10 uM by surface plasmon resonance assay in presence of 5% cholesterol
Lipid bilayer [2] = experiment: Binding affinity to synthetic palmitoyl-oleoyl-phosphatidylcholine liposome assessed as overall equilibrium association constant at 10 uM by surface plasmon resonance assay in presence of 5% ergosterol
Lipid bilayer [3] = experiment: Binding affinity to synthetic palmitoyl-oleoyl-phosphatidylcholine liposome at 10 uM by surface plasmon resonance assay in presence of 5% ergosterol
Lipid bilayer [4] = experiment: Binding affinity to synthetic palmitoyl-oleoyl-phosphatidylcholine liposome assessed as overall equilibrium association constant at 10 uM by surface plasmon resonance assay
Lipid bilayer [5] = experiment: Binding affinity to synthetic palmitoyl-oleoyl-phosphatidylcholine liposome assessed as association constant for compound- PPC liposome reorientation complex at 10 uM by surface plasmon resonance assay in presence of 5% cholesterol
Lipid bilayer [6] = experiment: Binding affinity to synthetic palmitoyl-oleoyl-phosphatidylcholine liposome assessed as overall equilibrium association constant at 10 uM by surface plasmon resonance assay in presence of 5% cholesterol
Lipid bilayer [7] = experiment: Binding affinity to synthetic palmitoyl-oleoyl-phosphatidylcholine liposome at 10 uM by surface plasmon resonance assay
Lipid bilayer [8] = experiment: Binding affinity to synthetic palmitoyl-oleoyl-phosphatidylcholine liposome assessed as association constant for compound- PPC liposome reorientation complex at 10 uM by surface plasmon resonance assay
Lipid bilayer [9] = experiment: Binding affinity to synthetic palmitoyl-oleoyl-phosphatidylcholine liposome assessed as association constant for compound- PPC liposome reorientation complex at 10 uM by surface plasmon resonance assay in presence of 5% ergosterol

Compound: C=C/C=C/CC/C=C/C=C/C=C/CC/C=C/[C@@H](O)[C@@H](O)C1O[C@@H]([C@H](O)[C@H](O)C(=C)CCC(O)[C@H]2C[C@@H](O)[C@@H](O)C([C@@H](O)[C@H](O)/C=C(\C)CC[C@H](O)C[C@H](O)[C@@H](O)[C@@H](C)C[C@H](O)[C@@H](O)CCCCCC(O)CCC[C@@H](O)/C=C/C[C@@H](O)/C=C/C[C@H](O)CO)O2)CC(O)C1O (some centres undefined)
- KA (Lipid bilayer [1]): 180 10^3/M
- KA (Lipid bilayer [2]): 3970 10^3/M
- KA (Lipid bilayer [3]): 143 10^3/M
- KA (Lipid bilayer [4]): 0.764 10^3/M
- KA (Lipid bilayer [5]): 3.92 10^3/M
- KA (Lipid bilayer [6]): 721 10^3/M
- KA (Lipid bilayer [7]): 0.901 10^3/M
- KA (Lipid bilayer [8]): 0.93 10^3/M
- KA (Lipid bilayer [9]): 28.6 10^3/M
